Measured values: patent US5968965A, “Inhibitors of farnesyl-protein transferase” (Merck & Co., Inc., priority 1997, dated 1999)
Structures can show the parent of a compound that is named as a salt.

Biological target: T1, human FPTase (Homo sapiens, UniProt P49354+P49356)
T1 construct: made in house
Experiment: In vitro inhibition of Ras farnesyl transferase (human FPTase)
Format: biochemical
Settings: [3H]-FPP incorporation, 100 nM Ras-CVIM, 30 min; read-out: IC50 against human FPTase

Question: How did the IC50 turn out when `N#Cc1ccc(Cn2cncc2CCC(=O)Nc2cccc(Cl)c2)cc1` [Example 1, N-(3-chlorophenyl)-3-[1-(4-cyanobenzyl)-5-imidazolyl]propionamide hydrochloride] was run?
Answer: < 10 µM
